Reference: US20260191982A1, “ANTI-BASAL CELL ADHESION MOLECULE ANTIBODY-DRUG CONJUGATE” (Genome & Company, Inc., priority 2022, published 2026)
Non-standard residues stand in square brackets, D forms with d. Residues, ends and D or L forms follow the SMILES beside them. Groups on a side chain read outwards from the residue. *: point of attachment. DM1Mal(CH2)2CO = COc1cc2cc(c1Cl)N(C)C(=O)C[C@H](OC(=O)[C@H](C)N(C)C(=O)CCSC1CC(=O)N(CCC(=O)*)C1=O)[C@]1(C)O[C@H]1[C@H](C)[C@@H]1C[C@@](O)(NC(=O)O1)[C@H](OC)/C=C/C=C(\C)C2; X2 = CC(=O)N[C@@H](CSC1CC(=O)N(CCC(=O)*)C1=O)C(=O)O; Dolaproine = CO[C@@H]([C@@H]1CCCN1)[C@@H](C)C(=O)O; Dil = CC[C@H](C)[C@H](NC)[C@@H](CC(=O)O)OC; NMe2Val = CC(C)[C@@H](C(=O)*)N(C)C; PEG5 = NCCOCCOCCOCCOCCOCCC(=O)O; Cit = NC(=O)NCCC[C@H](N)C(=O)O; PEG4 = NCCOCCOCCOCCOCCC(=O)O

Molecular target: T1, Cathepsin B (Homo sapiens, UniProt P07858)
T1 construct: purchased R&D Systems, Bio-Techne AG 953-CY-010
Assay: Cat B-induced cleavage, in vitro enzymatic cleavage assay with UHPLC-MS/MS
Type: biochemical
Settings: for Ratio (T1/2 Compound/T1/2 Reference): versus Cys-MC-Val-Cit-PABC-MMAF; for half-life at 10 μM: human, recombinant human Cathepsin B (activated), 10 μM test compound, Cathepsin B 2 μg/mL, MES buffer pH 5.0, 37° C., read-out: T1/2 Compound
Protocol: Cat B-induced cleavage of the antibody-drug conjugates can be evaluated according to the in vitro enzymatic cleavage assay using recombinant human Cathepsin B (commercially acquired from R&D Systems, Bio-Techne AG, cat #. 953-CY-010 in the form of a precursor) and UHPLC-MS/MS analysis.
Briefly, the enzyme is reconstituted in 25 mM 2-(N-morpholino) ethanesulfonic acid (MES) buffer adjusted at pH 5.0 with a 1M NaOH solution and then activated with a […] solution of Dithiothreitol (DDT) at room temperature for at least 15 min. The in vitro enzymatic assay is conducted at 37° C. with the test compound at a concentration of 10 μM (when the test compound is a linker according to the present invention wherein the maleimide group has been quenched in the presence of acetyl-cysteine (Ac-Cys-OH)) or 2.5 μM (when the test compound is an antibody-drug conjugate) in the presence of activated recombinant human Cathepsin B enzyme at 2 μg/mL in a 25 mM MES buffer pH 5.0. The enzymatic cleavage reaction is stopped for each defined time point by mixing a 1/10 ratio volume of acetonitrile+0.1% formic acid (FA) containing an internal standard (warfarine at 0.5 μM). Analysis is conducted using a Waters Acquity UPLC System coupled to a Waters Xevo TQ triple quad mass spectrometer. UHPLC is conducted with a HSS T3 1.8 μm 50×2.1 mm column (Waters) heated at 45° C. and fitted with 2 μm insert filter pre-column (Waters), and solvent systems A1 (H2O+0.1% FA) and B1 (acetonitrile+0.1% FA) at a flow rate of 0.6 mL/min and a 5-95% gradient of B1 over 2.0 min. MS/MS is performed using electrospray ionization (ESI) interface in positive mode and specific MRM transitions for each compound.
The propensity of compounds 1-13 to be cleaved by Cathepsin B was evaluated according to an in vitro enzymatic cleavage assay using recombinant human Cathepsin B and UHPLC-MS/MS analysis as described in Section 2.3.5 above.

Row | SMILES | Ratio (T1/2 Compound/T1/2 Reference) | Cat B-induced drug release, times faster than reference (compared to Cys-MC-Val-Cit-PABC-MMAF) [times] | half-life at 10 μM [min]
1 | CC[C@H](C)[C@@H]([C@@H](CC(=O)N1CCC[C@H]1[C@H](OC)[C@@H](C)C(=O)N[C@@H](Cc1ccccc1)C(=O)N[C@@H](CCCNC(=N)N)C(=O)N[C@@H](CCCCNC(=O)CCOCCOCCOCCOCCOCCNC(=O)CCN1C(=O)CC(SC[C@H](NC(C)=O)C(=O)O)C1=O)C(=O)N[C@@H](Cc1ccccc1)C(=O)O)OC)N(C)C(=O)[C@@H](NC(=O)[C@H](C(C)C)N(C)C)C(C)C (stereo partly drawn) [compound 1, AF-Arg-Lys(PEG4-Mal-Cys-Ac)-Phe-OH] (NMe2Val-V[Dil][Dolaproine]FRK([PEG5-X2])F-OH) | 0.12 |  | 
2 | CC[C@H](C)[C@@H]([C@@H](CC(=O)N1CCC[C@H]1[C@H](OC)[C@@H](C)C(=O)N[C@@H](Cc1ccccc1)C(=O)N[C@@H](CCCNC(=N)N)C(=O)N[C@@H](Cc1ccccc1)C(=O)N[C@@H](CCCCNC(=O)CCOCCOCCOCCOCCNC(=O)CCN1C(=O)CC(SC[C@H](NC(C)=O)C(=O)O)C1=O)C(=O)O)OC)N(C)C(=O)[C@@H](NC(=O)[C@H](C(C)C)N(C)C)C(C)C (stereo partly drawn) [compound 3, AF-Arg-Phe-Lys(PEG4-Mal-Cys-Ac)-OH] (NMe2Val-V[Dil][Dolaproine]FRFK([PEG4-X2])-OH) | 0.11 |  | 
3 | COc1cc2cc(c1Cl)N(C)C(=O)C[C@H](OC(=O)[C@H](C)N(C)C(=O)CCSC1CC(=O)N(CCC(=O)N[C@@H](Cc3ccccc3)C(=O)N[C@@H](CCCCN)C(=O)N[C@@H](CCCCNC(=O)CCOCCOCCOCCOCCNC(=O)CCN3C(=O)CC(SC[C@H](NC(C)=O)C(=O)O)C3=O)C(=O)N[C@@H](Cc3ccccc3)C(=O)O)C1=O)[C@]1(C)O[C@H]1[C@H](C)[C@@H]1C[C@@](O)(NC(=O)O1)[C@H](OC)/C=C/C=C(\C)C2 (stereo partly drawn) [compound 5, DM1-Mal-Phe-Lys-Lys(PEG4-Mal-Cys-Ac)-Phe-OH] ({DM1Mal(CH2)2CO}-FKK([PEG4-X2])F-OH) | 0.05 | 20 | 
4 | COc1cc2cc(c1Cl)N(C)C(=O)C[C@H](OC(=O)[C@H](C)N(C)C(=O)CCSC1CC(=O)N(CCC(=O)N[C@@H](Cc3ccccc3)C(=O)N[C@@H](CCCNC(N)=O)C(=O)N[C@@H](CCCCNC(=O)CCOCCOCCOCCOCCNC(=O)CCN3C(=O)CC(SC[C@H](NC(C)=O)C(=O)O)C3=O)C(=O)N[C@@H](Cc3ccccc3)C(=O)O)C1=O)[C@]1(C)O[C@H]1[C@H](C)[C@@H]1C[C@@](O)(NC(=O)O1)[C@H](OC)/C=C/C=C(\C)C2 (stereo partly drawn) [compound 6, DM1-Mal-Phe-Cit-Lys(PEG4-Mal-Cys-Ac)-Phe-OH] ({DM1Mal(CH2)2CO}-F[Cit]K([PEG4-X2])F-OH) | 0.02 |  | 
5 | COc1cc2cc(c1Cl)N(C)C(=O)C[C@H](OC(=O)[C@H](C)N(C)C(=O)CCSC1CC(=O)N(CCC(=O)N[C@@H](Cc3ccccc3)C(=O)N[C@@H](CCCNC(N)=O)C(=O)N[C@@H](Cc3ccccc3)C(=O)N[C@@H](CCCCNC(=O)CCOCCOCCOCCOCCNC(=O)CCN3C(=O)CC(SC[C@H](NC(C)=O)C(=O)O)C3=O)C(=O)O)C1=O)[C@]1(C)O[C@H]1[C@H](C)[C@@H]1C[C@@](O)(NC(=O)O1)[C@H](OC)/C=C/C=C(\C)C2 (stereo partly drawn) [compound 7, DM1-Mal-Phe-Cit-Phe-Lys(PEG4-Mal-Cys-Ac)-OH] ({DM1Mal(CH2)2CO}-F[Cit]FK([PEG4-X2])-OH) | 0.09 |  | 
6 | CC[C@H](C)[C@@H]([C@@H](CC(=O)N1CCC[C@H]1[C@H](OC)[C@@H](C)C(=O)N[C@@H](Cc1ccccc1)C(=O)N[C@@H](CCCNC(N)=O)C(=O)N[C@@H](CCCCNC(=O)CCOCCOCCOCCOCCNC(=O)CCN1C(=O)CC(SC[C@H](NC(C)=O)C(=O)O)C1=O)C(=O)N[C@@H](Cc1ccccc1)C(=O)O)OC)N(C)C(=O)[C@@H](NC(=O)[C@H](C(C)C)N(C)C)C(C)C (stereo partly drawn) [compound 8, AF-Cit-Lys(PEG4-Mal-Cys-Ac)-Phe-OH] (NMe2Val-V[Dil][Dolaproine]F[Cit]K([PEG4-X2])F-OH) | 0.09 |  | 
7 | COc1cc2cc(c1Cl)N(C)C(=O)C[C@H](OC(=O)[C@H](C)N(C)C(=O)CCSC1CC(=O)N(CC3CCC(C(=O)N[C@@H](Cc4ccccc4)C(=O)N[C@@H](CCCNC(N)=O)C(=O)N[C@@H](CCCCNC(=O)CCOCCOCCOCCOCCOCCNC(=O)CN4C(=O)CC(SC[C@H](NC(C)=O)C(=O)O)C4=O)C(=O)N[C@@H](Cc4ccc(O)cc4)C(=O)O)CC3)C1=O)[C@]1(C)O[C@H]1[C@H](C)[C@@H]1C[C@@](O)(NC(=O)O1)[C@H](OC)/C=C/C=C(\C)C2 (stereo partly drawn) [compound 11, DM1-Mcc-Phe-Cit-Lys(PEG5-Mal-Cys-Ac)-Tyr-OH] | 0.005 |  | < 1
8 | COc1cc2cc(c1Cl)N(C)C(=O)C[C@H](OC(=O)[C@H](C)N(C)C(=O)CCSC1CC(=O)N(CC3CCC(C(=O)N[C@@H](CCCNC(N)=O)C(=O)N[C@@H](CCCCNC(=O)CCOCCOCCOCCOCCOCCNC(=O)CN4C(=O)CC(SC[C@H](NC(C)=O)C(=O)O)C4=O)C(=O)N[C@@H](Cc4ccc(O)cc4)C(=O)O)CC3)C1=O)[C@]1(C)O[C@H]1[C@H](C)[C@@H]1C[C@@](O)(NC(=O)O1)[C@H](OC)/C=C/C=C(\C)C2 (stereo partly drawn) [compound 12, DM1-Mcc-Cit-Lys(PEG5-Mal-Cys-Ac)-Tyr-OH] | 0.00004 |  | < 1
